Reference: ChEMBL document CHEMBL5518240 (J Med Chem, 2024)
Activity calls are given as the source filed them. No cut-off for these calls is given here.

Tests used:
CWR22R [1] = assay: Reduction in c-Myc gene expression in AR positive human 22Rv1 cells assessed as reduction in mRNA level at 100 nM measured after 6 hrs by qRT-PCT analysis relative to control; assay type: functional, cell-based
VCaP [2] = assay: Antiproliferative activity against AR positive human VCaP cells assessed inhibition of cell growth measured after 4 days by CellTiter-Glo Luminescent cell viability assay; assay type: functional, cell-based; details: 96 h
LNCaP [3] = assay: Antiproliferative activity against AR positive human LNCaP cells assessed inhibition of cell growth measured after 4 days by CellTiter-Glo Luminescent cell viability assay; assay type: functional, cell-based; details: 96 h
LNCaP [4] = assay: Reduction in c-Myc gene expression in AR positive human LNCaP cells assessed as reduction in mRNA level at 100 nM measured after 6 hrs by qRT-PCT analysis relative to control; assay type: functional, cell-based
VCaP [5] = assay: Reduction in AR gene expression in AR positive human VCaP cells assessed as reduction in mRNA level at 100 nM measured after 6 hrs by qRT-PCT analysis relative to control; assay type: functional, cell-based
CWR22R [6] = assay: Antiproliferative activity against AR positive human 22Rv1 cells assessed inhibition of cell growth measured after 4 days by CellTiter-Glo Luminescent cell viability assay; assay type: functional, cell-based; details: 22Rv1, 96 h
VCaP [7] = assay: Reduction in c-Myc gene expression in AR positive human VCaP cells assessed as reduction in mRNA level at 100 nM measured after 6 hrs by qRT-PCT analysis relative to control; assay type: functional, cell-based
LNCaP [8] = assay: Reduction in AR gene expression in AR positive human LNCaP cells assessed as reduction in mRNA level at 100 nM measured after 6 hrs by qRT-PCT analysis relative to control; assay type: functional, cell-based
CWR22R [9] = assay: Reduction in AR gene expression in AR positive human 22Rv1 cells assessed as reduction in mRNA level at 100 nM measured after 6 hrs by qRT-PCT analysis relative to control; assay type: functional, cell-based
LNCaP [10] = assay: Reduction in AR gene expression in AR positive human LNCaP cells assessed as reduction in mRNA level at 1000 nM measured after 6 hrs by qRT-PCT analysis; assay type: functional, cell-based
CWR22R [11] = assay: Reduction in c-Myc gene expression in AR positive human 22Rv1 cells assessed as reduction in mRNA level at 1000 nM measured after 6 hrs by qRT-PCT analysis; assay type: functional, cell-based
LNCaP [12] = assay: Reduction in KLK3 gene expression in AR positive human LNCaP cells assessed as reduction in mRNA level at 1000 nM measured after 6 hrs by qRT-PCT analysis; assay type: functional, cell-based
LNCaP [13] = assay: Reduction in c-Myc gene expression in AR positive human LNCaP cells assessed as reduction in mRNA level at 1000 nM measured after 6 hrs by qRT-PCT analysis; assay type: functional, cell-based
CWR22R [14] = assay: Reduction in AR gene expression in AR positive human 22Rv1 cells assessed as reduction in mRNA level at 1000 nM measured after 6 hrs by qRT-PCT analysis; assay type: functional, cell-based
CWR22R [15] = assay: Reduction in KLK3 gene expression in AR positive human 22Rv1 cells assessed as reduction in mRNA level at 1000 nM measured after 6 hrs by qRT-PCT analysis; assay type: functional, cell-based
VCaP [16] = assay: Reduction in KLK3 gene expression in AR positive human VCaP cells assessed as reduction in mRNA level at 1000 nM measured after 6 hrs by qRT-PCT analysis; assay type: functional, cell-based
VCaP [17] = assay: Reduction in AR gene expression in AR positive human VCaP cells assessed as reduction in mRNA level at 1000 nM measured after 6 hrs by qRT-PCT analysis; assay type: functional, cell-based
VCaP [18] = assay: Reduction in c-Myc gene expression in AR positive human VCaP cells assessed as reduction in mRNA level at 1000 nM measured after 6 hrs by qRT-PCT analysis; assay type: functional, cell-based
VCaP [19] = assay: Antitumor activity against human VCaP cells xenografted in CB17 SCID mouse model assessed as tumor growth inhibition at 30 mg/kg, po qd scheduled 5 days in a week measured on day 63; assay type: functional; details: 1512 h, time 63 day, read-out: TGI
VCaP [20] = assay: Antitumor activity against human VCaP cells xenografted in CB17 SCID mouse model assessed as tumor growth inhibition at 20 mg/kg, po qd scheduled 5 days in a week measured on day 63; assay type: functional; details: 1512 h, time 63 day, read-out: TGI
[21] = target: Bromodomain-containing protein 4 (Homo sapiens, UniProt O60885); assay: Binding affinity to BRD4 (unknown origin) by SPR assay

| SMILES | IC50 (VCaP [2]) [µM] | IC50 (LNCaP [3]) [µM] | IC50 (CWR22R [6]) [µM] | Activity (LNCaP [10]) | Activity (CWR22R [11]) | Activity (LNCaP [12]) | Activity (LNCaP [13]) | Activity (CWR22R [14]) | Activity (CWR22R [15]) | Activity (VCaP [16]) | Activity (VCaP [17]) | Activity (VCaP [18]) | also measured |
| --- | --- | --- | --- | --- | --- | --- | --- | --- | --- | --- | --- | --- | --- |
| N#Cc1ccc(O[C@H]2CC[C@H](NC(=O)c3ccc(N4CCC(CN5CCN(c6cc7c(cc6F)C(=O)N(C6CCC(=O)NC6=O)C7=O)CC5)CC4)nn3)CC2)cc1Cl (stereo partly specified) [BAVDEGALUTAMIDE] | 0.219 | 0.124 | 0.316 | – | – | – | – | – | – | – | – | – | Activity (CWR22R [1]): inactive; Activity (LNCaP [4]): inactive; Activity (VCaP [5]): Active; Activity (VCaP [7]): Active; Activity (LNCaP [8]): inactive; Activity (CWR22R [9]): inactive |
| CC(=O)N1CCc2c(c(N3CCCc4cc(-c5cnn(C)c5)c(C(F)F)cc43)nn2C2CCOCC2)C1 | 0.216 | 7 | > 1 | Active | Active | Active | Active | Active | Active | Active | Active | Active | inhibition in vivo at 30 mg/kg (VCaP [19]): 46% |
| CO[C@H]1CC[C@H](n2c([C@@H]3CCCC(=O)N3c3ccc(F)c(F)c3)nc3cc(-c4c(C)noc4C)ccc32)CC1 [INOBRODIB] | 0.0536 | 0.412 | 0.184 | Active | Active | Active | Active | Active | Active | Active | Active | Active | inhibition in vivo at 20 mg/kg (VCaP [20]): 42%; Kd [21]: 0.222 µM |
